# Data: US20130158111A1, “Compositions and Methods for Depleting Mutant p53” (Georgetown University, priority 2011, published 2013)
# What was measured:
# [1] = target: T1, wild-type p53 in A549, HCT116, MCF-7 and MCF-10A cells (Homo sapiens, UniProt P04637); test: Immunoblot of wild-type p53 in cells with wild-type p53; assay type: cell-based
# T1 construct: host or cells: A549, HCT116, MCF-7, MCF-10A
# Source text: Human H596, A549, HCT116, MDA-MB-231, MDA-MB-468, MCF-7, DU145, MCF-10A, SW480, and SCC-4 cells were obtained from ATCC (Manassas, Va.). H1299-175H cells were kindly provided by Dr. Maria Laura Avantaggiati (Georgetown University). Cells were maintained in DMEM or RPMI-1640 medium supplemented with 10% FBS (Hyclone). DMSO, PEITC, BITC, SFN, AITC, NMPEA, and monochlorobimane were purchased from Sigma-Aldrich (St. Louis, Mo.). 2,2-Diphenylethyl ITC, 4-phenoxybenzyl ITC, 4-methoxybenzyl ITC, 4-chlorobenzyl ITC, Dα-methylbenzyl ITC, trityl ITC, and 3-phenylpropyl ITC were purchased from Trans World Chemicals (Rockville, Md.). Erucin and 4-phenylbutyl ITC were from LKT Laboratories, Inc. (St. Paul, Minn.). […] All the compounds are with purities ≧95% as determined by gas-liquid chromatography or HPLC. […]
# Whole cell lysates were prepared in lysis buffer (20 mM HEPES, pH 7.4, 2 mM EGTA, 50 mM β-glycerol phosphate, 1% Triton X-100, 10% glycerol, 1 mM DTT, 1 mM PMSF, […], 1 mM Na3-VO4, and 5 mM NaF). […] Proteins were detected using enhanced chemiluminescence (ECL) reagents (GE Healthcare). […]
# [2] = target: T2, p53R175H mutant protein in SK-BR-3 cells (Homo sapiens, UniProt P04637, R175H); test: Immunofluorescence with conformation specific antibodies (PAB240, PAB1620); assay type: cell-based; conditions: SK-BR-3, PEITC 4 hrs vs DMSO
# T2 construct: endogenous in cells; host or cells: SK-BR-3
# Description: To determine if the induction of apoptosis is due to the restoration of WT conformation to the mutant p53 protein, immunoflourescence analysis was performed. SK-BR-3 cells expressing p53R175H mutant protein were treated with PEITC or DMSO as a control for 4 hrs. Cells were stained with the conformation specific antibody (PAB240) that recognizes the mutant p53 or antibody specific for the WT p53 protein (PAB1620).
# [3] = target: T3, mutant p53 in MDA-MB-231 breast cancer cells (Homo sapiens, UniProt P04637, R280K); test: Immunoblot of mutant p53 in MDA-MB-231 cells treated with ITCs; assay type: cell-based; conditions: MDA-MB-231, 10 μM ITCs, 24 h, compared with DMSO control
# T3 construct: host or cells: MDA-MB-231
# Source text: Human H596, A549, HCT116, MDA-MB-231, MDA-MB-468, MCF-7, DU145, MCF-10A, SW480, and SCC-4 cells were obtained from ATCC (Manassas, Va.). H1299-175H cells were kindly provided by Dr. Maria Laura Avantaggiati (Georgetown University). Cells were maintained in DMEM or RPMI-1640 medium supplemented with 10% FBS (Hyclone). […] 2,2-Diphenylethyl ITC, 4-phenoxybenzyl ITC, 4-methoxybenzyl ITC, 4-chlorobenzyl ITC, Dα-methylbenzyl ITC, trityl ITC, and 3-phenylpropyl ITC were purchased from Trans World Chemicals (Rockville, Md.). Erucin and 4-phenylbutyl ITC were from LKT Laboratories, Inc. (St. Paul, Minn.). […] The p53 DO-1 and β-actin antibodies were purchased from Santa Cruz Biotechnology (Santa Cruz, Calif.), horseradish peroxidase-labeled goat antimouse secondary antibodies were purchased from GE-Healthcare (Pittsburgh, Pa.), and Bio-Rad Protein Assay was from Bio-Rad (Hercules, Calif.).
# Whole cell lysates were prepared in lysis buffer (20 mM HEPES, pH 7.4, 2 mM EGTA, 50 mM β-glycerol phosphate, 1% Triton X-100, 10% glycerol, 1 mM DTT, 1 mM PMSF, […], 1 mM Na3-VO4, and 5 mM NaF). For immunoblot analysis, equal amounts of protein were resolved on 4-12% NuPAGE BisTris gels (Invitrogen) and transferred to PVDF membranes (Millipore). The membranes were blocked with 5% milk in TBST and were then probed with p53 (DO-1) or β-actin antibody. Proteins were detected using enhanced chemiluminescence (ECL) reagents (GE Healthcare).
# DU145 cells = test: Apoptosis and cell cycle progression, DU145; assay type: cell-based, Human; conditions: DU145, 4 uM PEITC
# Source text: (§1) The negative effects of PEITC on cell proliferation might affect the apoptotic potential of the cells and the cell cycle progression.
# HOP-92 (R175L) cell line = test: Cell proliferation, HOP-92; assay type: cell-based; conditions: Homo sapiens, 250 nM PEITC
# Description: Next, the effect of PEITC exposure on tumor growth of the tumor cell lines expressing mutant or the WT p53 protein was examined. […] This hypersensitivity to PEITC being mediated through mutant p53 was next examined. The effect of PEITC on mda-mb-231 cells depleted of mutant p53 by >90% was compared to non-specific (NS) siRNA transfected cells as a control (FIG. 9B). […] Further the effect of PEITC treatment on the level of mutant p53 protein at lower doses was analyzed by western blot analysis (FIG. 9D).
# H522 cells = test: Apoptosis and cell cycle progression, H522; assay type: cell-based; conditions: H522, 4 uM PEITC
# Source text: as §1
# p53 in H1299-143A cells = target: T4, p53 in H1299-143A cells (Homo sapiens, UniProt P04637, V143A); test: PEITC-induced p53 depletion in H1299-143A cells, mutant vs wild-type conformation; assay type: cell-based; conditions: 20 μM PEITC, 24 h
# T4 construct: expressed in transfected cells; host or cells: H1299-143A
# Description: FIG. 2 depicts PEITC depleting p53 protein in human cancer cells with different p53 mutation but not in cells with wild-type p53. (A) Cell lines harboring mutant p53 were treated with 15 μM PEITC (MDA-MB-231, MDA-MB-468, and SCC-4) or 10 μM PEITC (DU145 and SW480) for the indicated times. (B) Cells with wild-type p53 were treated with 20 μM PEITC (HCT116, A549, and MCF-7) or 15 μM PEITC (MCF-10A) for the indicated times. […] H1299-175H cells are used as control. Both cells were treated with 20 μM PEITC for 24 h.
smiles,measurement,setting,value
"S=C=NCCc1ccccc1 [PEITC, phenethyl isothiocyanate]",wild-type p53 expression,"[1]; 15 or 20 μM PEITC for 2, 4, 8, and 24 h",did not decrease
same,level of wild type (WT) p53 protein,"[1]; PEITC exposure, summary of previous experiments",no significant decrease
same,conformation of p53R175H mutant (PAB1620 staining),[2],induced conformation change
same,depletion of mutant p53 at equimolar concentrations,[3],approximately the same extent
same,apoptosis compared to DMSO treated cells,DU145 cells,two fold increase
same,cell cycle progression,DU145 cells,S-phase arrest
same,inhibition at 0.25 µM,HOP-92 (R175L) cell line,40%
same,apoptosis compared to DMSO treated cells,H522 cells,two fold increase
same,cell cycle progression,H522 cells,S-phase arrest
same,"sensitivity to PEITC-induced p53 depletion, mutant conformation (37° C.) vs wild-type conformation (32.5° C.)",p53 in H1299-143A cells,more sensitive
